According to patent US6147097A, “Imidazole derivatives as anti-HIV agents” (Shionogi & Co., Ltd., priority 1994, dated 2000):
pIC50: −log10 of the molar value. ≈ marks a conversion by molar mass, not a printed value. Read-outs that look alike come from different tables or passages of the source.

Tests used:
[1] = test system: HIV (HTLV-IIIB strain); experiment: microbe, parasite or virus in culture; assay type: cell-based; details: Human immunodeficiency virus 1, IIIB, MT4, 120 h
Procedure, shortened: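 Protection from virus was read as viable-cell MTT conversion to formazan after 5 days at 37° C. The cultures contained MT-4 cells (3.5×10^4/well), compound dilutions and 60 pfu HIV per well.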

[2] = cytotoxicity in MT-4 cells (MTT, culture medium in place of HIV); assay type: cell-based; details: human
Procedure, shortened: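 Uninfected readout: compound-treated MT-4 cultures, 3.5×10^4 cells/well, received medium in place of virus and were kept 5 days at 37° C. Viability measured by 1 h MTT reduction, solubilized formazan read at 560/690 nm relative to control wells.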

[3] = target: T1, purified recombinant HIV-1 reverse transcriptase (Human immunodeficiency virus type 1 group M subtype B, UniProt P04585); experiment: reverse transcriptase inhibition, poly(rA)/(dT) template primer, [3H]dTTP uptake; assay type: biochemical
T1 construct: purified recombinant HIV-1 reverse transcriptase; made in house; host or cells: Escherichia coli
Procedure, shortened: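 Inhibition reported as percent reduction of [3H]dTTP incorporation relative to solvent control, after 1 h at 37 °C at pH 8.3. Recombinant RT from E. coli, poly(rA) template with oligo(dT) primer, 4 μM unlabeled dTTP as substrate; product collected on DEAE filter mats.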

[4] = MT-4 cells, no virus, 37° C., 5 days, MTT, Table 3, read-out: CC50
[5] = MT-4 cells, 60 pfu HIV per well, 37° C., 5 days, MTT, Tables 1 and 2, read-out: EC50

Row | SMILES | EC50 [1] | CC50 at 120 h [2, 4] | pIC50 [3] | EC50 [1, 5] | CC50 at 120 h ([2]; mt-4 cells) | pIC50 ([3]; read-out: RT IC50, pH 8.3, 37° C., 1 hour, Tables 5 and 6)
1 | CC(C#N)c1nc(COC(N)=O)n(C)c1Sc1cccc(Cl)c1 (stereo not drawn) [Compound I-98, 2-[2-carbamoyloxymethyl-5-(3-chlorophenylthio)-1-methyl-1H-imidazol-4-yl]propiononitrile] | 1 µg/mL (≈ 2.85 µM) | 10 to 100 µg/mL (≈ 28.5 to 285 µM) | 3.98 | – | – | –
2 | CCOC(=O)Cn1c(CCCOCc2ccccc2)nc(C(C)C)c1Sc1cc(Cl)cc(Cl)c1 [Compound 136d, (2-(3-benzyloxypropyl)-5-(3,5-dichlorophenylthio)-4-isopropyl-1H-imidazol-1-yl)-ethyl acetate] | – | – | < 3.72 | 0.5 µg/mL | 12.5 µg/mL | –
3 | CC(O)Cn1c(CO)nc(C(C)C)c1Sc1cc(Cl)cc(Cl)c1 (stereo not drawn) [I-32', [1-(2-hydroxypropyl)-5-(3,5-dichlorophenylthio)-4-isopropyl-1H-imidazol-2-yl]methanol] | – | 12.5 to 25 µg/mL (≈ 33.3 to 66.6 µM) | 5.82 | 0.002 to 0.004 µg/mL (≈ 0.00533 to 0.0107 µM) | – | –
4 | CC(C)c1nc(CCCO)n(C)c1Sc1cc(Cl)cc(Cl)c1 [Compound 137a, 3-(5-(3,5-dichlorophenylthio)-4-isopropyl-1-methyl-1H-imidazol-2-yl)-propan-1-ol] | – | – | 5.25 | 0.008 µg/mL (≈ 0.0223 µM) | 6.3 to 12.5 µg/mL (≈ 17.5 to 34.8 µM) | –
5 | CC(C)c1nc(CC#N)n(C)c1Sc1cc(Cl)cc(Cl)c1 [Compound I-80a, [5-(3,5-dichlorophenylthio)-4-isopropyl-1-methyl-1H-imidazol-2-yl]acetonitrile] | – | 100 µg/mL (≈ 294 µM) | 6.49 | 0.002 to 0.004 µg/mL (≈ 0.00588 to 0.0118 µM) | – | –
6 | Cc1cc(C)cc(Sc2c(C(C)C)nc(C)n2Cc2ccccc2)c1 [Compound I-4, 1-benzyl-5-(3,5-dimethylphenylthio)-4-isopropyl-2-methylimidazole] | – | 12.5 µg/mL (≈ 35.7 µM) | 5.31 | 0.016 µg/mL (≈ 0.0456 µM) | – | –
7 | CC(C)c1nc(CO)n(Cc2ccccc2N)c1Sc1cc(Cl)cc(Cl)c1 [Compound I-119, 1-(o-aminobenzyl)-5-(3,5-dichlorophenylthio)-2-hydroxymethyl-4-isopropyl-1H-imidazole] | – | – | 5.11 | 0.13 to 0.25 µg/mL (≈ 0.308 to 0.592 µM) | 3.1 µg/mL (≈ 7.34 µM) | –
8 | CC(C)c1nc(CCO)n(Cc2cccc([N+](=O)[O-])c2)c1Sc1cc(Cl)cc(Cl)c1 [Compound 126b, 5-(3,5-Dichlorophenylthio)-2-(2-hydroxyethyl)-4-isopropyl-1-m-nitrobenzyl-1H-imidazole] | – | – | 5.07 | 0.008 to 0.016 µg/mL (≈ 0.0172 to 0.0343 µM) | 3.1 to 6.3 µg/mL (≈ 6.65 to 13.5 µM) | –
9 | CC(C)c1nc(CCO)n(Cc2ccc(N)cc2)c1Sc1cc(Cl)cc(Cl)c1 [Compound I-139, 1-(p-aminobenzyl)-5-(3,5-dichlorophenylthio)-2-hydroxyethyl-4-isopropyl-1H-imidazole] | – | – | 5.44 | < 0.008 µg/mL | 6.3 µg/mL (≈ 14.4 µM) | –
10 | CCn1c(CN)nc(C(C)C)c1Sc1ccccc1 [Compound I-75, 2-aminomethyl-1-ethyl-4-isopropyl-5-phenylthio-1H-imidazole] | – | – | 6.10 | 0.01 µg/mL (≈ 0.0363 µM) | 16.5 µg/mL (≈ 59.9 µM) | –
11 | CC(C)c1nc(CCCOC(N)=O)n(CCOC(N)=O)c1Sc1cc(Cl)cc(Cl)c1 [Compound I-151, 1-(2-carbamoyloxyethyl)-2-(3-carbamoyloxypropyl)-5-(3,5-dichlorophenylthio)-4-isopropyl-1H-imidazole] | – | – | 5.21 | 0.0006 µg/mL (≈ 0.00126 µM) | 50 to 100 µg/mL (≈ 105 to 210 µM) | –
12 | C=CCn1c(CO)nc(C(C)C)c1Sc1cccc(Cl)c1 [Compound I-17, [1-allyl-5-(3-chlorophenylthio)-4-isopropyl-1H-imidazol-2-yl]methanol] | – | 6.3 to 12.5 µg/mL (≈ 19.5 to 38.7 µM) | > 5.61 | 0.005 to 0.01 µg/mL (≈ 0.0155 to 0.031 µM) | – | –
13 | CNCc1nc(C(C)C)c(Sc2cc(Cl)cc(Cl)c2)n1C [Compound I-85, 5-(3,5-dichlorophenylthio)-4-isopropyl-1-methyl-2-methylaminomethyl-1H-imidazole] | – | 1 to 10 µg/mL (≈ 2.9 to 29 µM) | 5.12 | 0.13 µg/mL (≈ 0.378 µM) | – | –
14 | CC(C)c1nc(CO)n(CCc2ccccn2)c1Sc1cc(Cl)cc(Cl)c1 [Compound 112a, 5-(3,5-dichlorophenylthio)-4-isopropyl-2-hydroxymethyl-1-(2-(2-pyridyl)ethyl)-1H-imidazole] | – | – | 5.64 | 0.008 µg/mL (≈ 0.0189 µM) | 6.3 µg/mL (≈ 14.9 µM) | –
15 | CCCn1c(CO)nc(C(C)C)c1Sc1cccc(Cl)c1 [Compound I-29, [5-(3-chlorophenylthio)-4-isopropyl-1-n-propyl-1H-imidazol-2-yl]methanol] | – | 12.5 µg/mL (≈ 38.5 µM) | 5.73 | 0.016 to 0.03 µg/mL (≈ 0.0492 to 0.0923 µM) | – | –
16 | CC(C)c1nc(CCCO)n(CCO)c1Sc1cc(Cl)cc(Cl)c1 [Compound 137d, 3-(5-(3,5-dichlorophenylthio)-1-(2-hydroxyethyl)-4-isopropyl-1H-imidazol-2-yl)-propan-1-ol] | – | – | 5.18 | < 0.008 µg/mL | 6.3 to 12.5 µg/mL (≈ 16.2 to 32.1 µM) | –

Row | SMILES | EC50 [1] | CC50 at 120 h [2, 4] | pIC50 [3] | EC50 [1, 5] | CC50 at 120 h ([2]; mt-4 cells) | pIC50 ([3]; read-out: RT IC50, pH 8.3, 37° C., 1 hour, Tables 5 and 6)
17 | CC(C)c1nc(CO)n(CCCc2ccccc2)c1Sc1cc(Cl)cc(Cl)c1 [Compound I-122, 5-(3,5-dichlorophenylthio)-2-hydroxymethyl-4-isopropyl-1-(3-phenylpropyl)-1H-imidazole] | – | – | 5.15 | 0.008 µg/mL (≈ 0.0184 µM) | 6.3 to 12.5 µg/mL (≈ 14.5 to 28.7 µM) | –
18 | CC(C)c1nc(CO)n(Cc2ccc[nH]c2=O)c1Sc1cc(Cl)cc(Cl)c1 [Compound 116b, 5-(3,5-dichlorophenyl-thio)-2-hydroxymethyl-1-(2(1H)-pyridon-3-ylmethyl)-4-isopropyl-1H-imidazole] | – | – | 5.12 | 0.016 µg/mL (≈ 0.0377 µM) | 50 µg/mL (≈ 118 µM) | –
19 | CCn1c(COC(N)=O)nc(C(C)C)c1Sc1cc(F)cc(F)c1 [Compound I-58, 2-carbamoyloxymethyl-5-(3,5-difluorophenylthio)-1-ethyl-4-isopropyl-1H-imidazole] | 0.002 µg/mL (≈ 0.00563 µM) | 10 to 100 µg/mL (≈ 28.1 to 281 µM) | 6.37 | – | – | –
20 | CC(C)c1nc(CNS(C)(=O)=O)n(C)c1Sc1cc(Cl)cc(Cl)c1 [Compound I-87, 5-(3,5-dichlorophenylthio)-4-isopropyl-2-methanesulfonylaminomethyl-1-methyl-1H-imidazole] | – | 10 to 100 µg/mL (≈ 24.5 to 245 µM) | < 3.61 | 0.5 to 1 µg/mL (≈ 1.22 to 2.45 µM) | – | –
21 | CC(C)c1nc(CCCOC(N)=O)n(Cc2ccncc2)c1Sc1cc(Cl)cc(Cl)c1 [Compound I-150, 2-(3-carbamoyloxypropyl)-5-(3,5-dichlorophenylthio)-4-isopropyl-1-(pyridin-4-yl)methyl-1H-imidazole] | – | – | 5.73 | 0.008 µg/mL (≈ 0.0167 µM) | 6.3 to 12.5 µg/mL (≈ 13.1 to 26.1 µM) | –
22 | CNC(=O)OCc1nc(C(C)C)c(Sc2cc(Cl)cc(Cl)c2)n1C [Compound I-43, 5-(3,5-dichlorophenylthio)-4-isopropyl-1-methyl-2-(N-methylcarbamoyl)oxymethyl-1H-imidazole] | – | 1 to 10 µg/mL (≈ 2.58 to 25.8 µM) | 4.86 | 0.25 µg/mL (≈ 0.644 µM) | – | –
23 | CC(=O)Cn1c(CO)nc(C(C)C)c1Sc1cc(Cl)cc(Cl)c1 [Compound I-32] | – | 10 to 100 µg/mL (≈ 26.8 to 268 µM) | 5.14 | 0.06 µg/mL (≈ 0.161 µM) | – | –
24 | CC(C)c1nc(COC(N)=O)n(Cc2cnc3ccccc3c2)c1Sc1cc(Cl)cc(Cl)c1 [Compound I-128, 2-carbamoyloxymethyl-5-(3,5-dichlorophenylthio)-4-isopropyl-1-(quinolin-3-ylmethyl)-1H-imidazole] | – | – | 5.27 | < 0.008 µg/mL | > 100 µg/mL | –
25 | CC(C)c1nc(CN(C)C)n(C)c1Sc1cc(Cl)cc(Cl)c1 [Compound I-78, 5-(3,5-dichlorophenylthio)-2-dimethylaminomethyl-4-isopropyl-1-methyl-1H-imidazole] | – | 1 to 10 µg/mL (≈ 2.79 to 27.9 µM) | 3.89 | 1 µg/mL (≈ 2.79 µM) | – | –
26 | CC(C)c1nc(CO)n(Cc2ccccc2)c1Sc1cccc([N+](=O)[O-])c1 [Compound I-21, [1-benzyl-4-isopropyl-5-(3-nitrophenylthio)-1H-imidazol-2-yl]methanol] | – | 6.3 to 12.5 µg/mL (≈ 16.4 to 32.6 µM) | 5.12 | 0.008 µg/mL (≈ 0.0209 µM) | – | –
27 | CCn1c(CCOC(N)=O)nc(C(C)C)c1Sc1cc(Cl)cc(Cl)c1 [Compound I-137, 2-(2-carbamoyloxyethyl)-5-(3,5-dichlorophenylthio)-1-ethyl-4-isopropyl-1H-imidazole] | 0.004 to 0.008 µg/mL (≈ 0.00994 to 0.0199 µM) | – | 5.09 | – | 50 µg/mL (≈ 124 µM) | –
28 | Cc1cc(C)cc(Sc2c(C(C)C)nc(C=NO)n2C)c1 [Compound I-10, 5-(3,5-dimethylphenylthio)-4-isopropyl-1-methyl-1H-imidazole-2-carbaldehyde oxime] | – | > 100 µg/mL | < 3.48 | 1 µg/mL (≈ 3.3 µM) | – | –
29 | CC(C)c1nc(CCO)n(Cc2cccc(N)c2)c1Sc1cc(Cl)cc(Cl)c1 [Compound I-141, I-(m-aminobenzyl)-5-(3,5-dichlorophenylthio)-2-hydroxyethyl-4-isopropyl-1H-imidazole] | – | – | 5.38 | < 0.008 µg/mL | 25 to 50 µg/mL (≈ 57.3 to 115 µM) | –
30 | CC(C)c1nc(CCN)n(C)c1Sc1cc(Cl)cc(Cl)c1 [Compound I-82, 2-(2-aminoethyl)-5-(3,5-dichlorophenylthio)-4-isopropyl-1-methyl-1H-imidazole] | – | – | – | 0.25 µg/mL (≈ 0.726 µM) | 1.5 to 3.2 µg/mL (≈ 4.36 to 9.29 µM) | 5.89
31 | CC(C)c1nc(CO)n(Cc2ccc(=O)[nH]c2)c1Sc1cc(Cl)cc(Cl)c1 [Compound 116a, 5-(3,5-dichlorophenylthio)-2-hydroxymethyl-1-(6-oxo-1,6-dihydro-pyridin-3-yl)methyl-4-isopropyl-1H-imidazole] | – | – | 5.51 | 0.004 µg/mL (≈ 0.00943 µM) | 30.7 µg/mL (≈ 72.3 µM) | –
